From ChEMBL document CHEMBL1136161, “Novel, potent phenethylamide inhibitors of the hepatitis C virus (HCV) NS3 protease: probing the role of P2 aryloxyprolines with hybrid structures” (Bioorg Med Chem Lett, 2003)
“And” between values parts separate entries of the source, which are not always exact repeats. Identical values can stand only once.

target: T1, NS3 (Hepatitis C virus, UniProt A3EZJ3); test: Inhibitory concentration against hepatitis C virus (HCV) NS3 protease; parameters: species or system Hepacivirus hominis
T1 sequence (A3EZJ3 whole entry): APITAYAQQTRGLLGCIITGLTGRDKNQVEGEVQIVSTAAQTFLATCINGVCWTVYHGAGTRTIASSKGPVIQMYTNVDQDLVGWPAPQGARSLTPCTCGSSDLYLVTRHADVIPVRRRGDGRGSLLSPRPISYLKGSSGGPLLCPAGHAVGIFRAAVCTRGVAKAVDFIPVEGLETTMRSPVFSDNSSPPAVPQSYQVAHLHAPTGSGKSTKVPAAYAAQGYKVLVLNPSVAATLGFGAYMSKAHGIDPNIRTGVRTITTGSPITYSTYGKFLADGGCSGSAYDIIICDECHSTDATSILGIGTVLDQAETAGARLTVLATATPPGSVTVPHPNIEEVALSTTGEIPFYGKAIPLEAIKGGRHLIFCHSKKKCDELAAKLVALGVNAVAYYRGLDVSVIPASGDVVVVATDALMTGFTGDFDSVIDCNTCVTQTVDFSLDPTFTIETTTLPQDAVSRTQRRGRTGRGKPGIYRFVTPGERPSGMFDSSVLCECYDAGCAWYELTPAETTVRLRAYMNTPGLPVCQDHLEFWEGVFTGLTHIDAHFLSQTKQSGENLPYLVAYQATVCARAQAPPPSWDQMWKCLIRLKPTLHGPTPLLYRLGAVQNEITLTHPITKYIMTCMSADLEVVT

IC50	SMILES
0.4 µM	COc1ccc2c(O[C@@H]3C[C@@H](C(=O)NC(CC(F)F)C(=O)NCCc4ccc(C(=O)O)cc4)N(C(=O)[C@@H](NC(=O)OCC(C)C)C(C)C)C3)cc(-c3ccccc3)nc2c1 (stereo not given in full)
11 µM	COc1ccc2c(O[C@@H]3C[C@@H](C(=O)NC(CC(F)F)C(=O)NCCc4ccc(C(=O)O)cc4)N(C(=O)[C@@H](O)C(C)C)C3)cc(-c3ccccc3)nc2c1 (stereo not given in full)
38 µM	COc1ccc2c(O[C@@H]3C[C@@H](C(=O)NC(CC(F)F)C(=O)NCCc4c(F)cc(C(=O)O)cc4F)N(C(C)=O)C3)cc(-c3ccccc3)nc2c1 (stereo not given in full)
0.054 µM	COc1ccc2c(O[C@@H]3C[C@@H](C(=O)NC(CC(F)F)C(=O)NCCc4c(F)cc(C(=O)O)cc4F)N(C(=O)[C@@H](NC(=O)OC(C)(C)C)C(C)(C)C)C3)cc(-c3ccccc3)nc2c1 (stereo not given in full)
0.18 µM	COc1ccc2c(O[C@@H]3CC(C(=O)NC(CC(F)F)C(=O)O)N(C(=O)[C@@H](NC(=O)OC(C)(C)C)C(C)(C)C)C3)cc(-c3ccccc3)nc2c1 (stereo not given in full)

More lines, now with the values behind:

SMILES	IC50
C=CC1C[C@]1(NC(=O)C1C[C@@H](Oc2cc(-c3ccccc3)nc3cc(OC)ccc23)CN1C(=O)[C@@H](NC(=O)OC(C)(C)C)C(C)(C)C)C(=O)O (stereo not given in full)	0.025 µM
C=CC1C[C@]1(NC(=O)C1C[C@@H](Oc2ccnc3ccccc23)CN1C(=O)[C@@H](NC(=O)OC(C)(C)C)C(C)(C)C)C(=O)O (stereo not given in full)	0.33 µM and < 0.5 µM

target: T1, NS3; test: Inhibitory concentration against hepatitis C virus (HCV) NS3 protease; Not active; parameters: species or system Hepacivirus hominis

IC50	SMILES
Not Active	C=CC1CC1(NC(=O)C1C[C@@H](Oc2ccnc3ccccc23)CN1C(=O)[C@@H](NC(=O)OC(C)(C)C)C(C)(C)C)C(=O)NCCc1ccc(C(=O)O)cc1 (stereo not given in full)
Not Active	C=CC1C[C@@]1(NC(=O)C1C[C@@H](Oc2ccnc3ccccc23)CN1C(=O)[C@@H](NC(=O)OC(C)(C)C)C(C)(C)C)C(=O)O (stereo not given in full)

target: T1, NS3; test: Inhibitory concentration against hepatitis C virus (HCV) NS3 protease; Not active at >> 100 uM; parameters: species or system Hepacivirus hominis

IC50	SMILES
Not Active	COc1ccc2c(O[C@@H]3C[C@@H](C(=O)NC(CC(F)F)C(=O)NCCc4ccc(C(=O)O)cc4)N(C(=O)C(C)(C)C)C3)cc(-c3ccccc3)nc2c1 (stereo not given in full)
